One test is filed under the species Bos taurus. The experiment in a line: Inhibition of bovine kidney alpha-fucosidase at 0.120 uM using p-nitrophenyl glycopyranoside as substrate preincubated for 5 mins followed by substrate addition and measured after 20 mins by visible absorption spectroscopic analysis.
The nature of test [1]: Competitive inhibition of human alpha-fucosidase using p-nitrophenyl glycopyranoside as substrate preincubated for 5 mins followed by substrate addition and measured after 20 mins by Lineweaver-Burk plot analysis.
Test [2] can be described thus: Inhibition of bovine kidney alpha-fucosidase using p-nitrophenyl glycopyranoside as substrate preincubated for 5 mins followed by substrate addition and measured after 20 mins by visible absorption spectroscopic analysis. Details: species or system Bos taurus.
For test [3], the target named is Alpha-galactosidase (Coffea arabica) (UniProt Q42656). Kind of test: Inhibition of coffee beans alpha-galactosidase at 0.1 mM using p-nitrophenyl glycopyranoside as substrate preincubated for 5 mins followed by substrate addition and measured after 20 mins by visible absorption spectroscopic analysis.
The test system of the next test is Prunus dulcis. The experiment in a line: Inhibition of almond beta-glucosidase at 0.1 mM using p-nitrophenyl glycopyranoside as substrate preincubated for 5 mins followed by substrate addition and measured after 20 mins by visible absorption spectroscopic analysis.
Test [4] is described as follows: Uncompetitive inhibition of bovine kidney alpha-fucosidase using p-nitrophenyl glycopyranoside as substrate preincubated for 5 mins followed by substrate addition and measured after 20 mins by Lineweaver-Burk plot analysis. Details: species or system Bos taurus.
Test [5] concerns the target T1, Alpha-mannosidase (Canavalia ensiformis) (UniProt C0HJB3).
T1 sequence (whole entry): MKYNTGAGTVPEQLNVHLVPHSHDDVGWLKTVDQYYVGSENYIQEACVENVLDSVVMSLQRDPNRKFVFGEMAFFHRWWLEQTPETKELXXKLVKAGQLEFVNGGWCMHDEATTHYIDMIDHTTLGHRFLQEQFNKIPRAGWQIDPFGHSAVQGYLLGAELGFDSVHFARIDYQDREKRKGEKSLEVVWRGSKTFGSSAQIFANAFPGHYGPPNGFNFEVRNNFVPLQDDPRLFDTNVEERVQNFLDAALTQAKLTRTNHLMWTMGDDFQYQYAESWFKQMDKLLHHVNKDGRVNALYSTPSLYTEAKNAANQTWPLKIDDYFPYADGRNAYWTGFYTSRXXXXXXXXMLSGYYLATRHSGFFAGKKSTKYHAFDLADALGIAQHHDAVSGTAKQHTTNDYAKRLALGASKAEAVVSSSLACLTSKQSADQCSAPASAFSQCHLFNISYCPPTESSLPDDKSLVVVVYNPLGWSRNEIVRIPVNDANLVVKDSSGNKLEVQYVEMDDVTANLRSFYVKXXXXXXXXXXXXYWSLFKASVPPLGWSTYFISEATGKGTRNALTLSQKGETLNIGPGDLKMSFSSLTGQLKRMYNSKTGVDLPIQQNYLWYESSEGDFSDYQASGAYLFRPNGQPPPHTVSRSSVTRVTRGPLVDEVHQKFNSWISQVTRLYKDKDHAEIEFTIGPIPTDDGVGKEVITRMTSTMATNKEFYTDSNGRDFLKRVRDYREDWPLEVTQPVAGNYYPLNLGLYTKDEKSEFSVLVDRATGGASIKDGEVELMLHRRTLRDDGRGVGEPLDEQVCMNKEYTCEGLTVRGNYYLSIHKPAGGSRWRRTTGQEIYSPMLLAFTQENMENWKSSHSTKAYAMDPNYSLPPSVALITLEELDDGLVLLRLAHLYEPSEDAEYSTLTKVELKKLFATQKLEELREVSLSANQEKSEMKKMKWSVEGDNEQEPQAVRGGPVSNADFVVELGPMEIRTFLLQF
Kind of test: Inhibition of jack beans alpha-mannosidase at 0.1 mM using p-nitrophenyl glycopyranoside as substrate preincubated for 5 mins followed by substrate addition and measured after 20 mins by visible absorption spectroscopic analysis.

A further test relates to Oryza sativa. Kind of test: Inhibition of rice beta-glucosidase at 0.1 mM using p-nitrophenyl glycopyranoside as substrate preincubated for 5 mins followed by substrate addition and measured after 20 mins by visible absorption spectroscopic analysis.
Test [6] in a line: Competitive inhibition of bovine kidney alpha-fucosidase using p-nitrophenyl glycopyranoside as substrate preincubated for 5 mins followed by substrate addition and measured after 20 mins by Lineweaver-Burk plot analysis. On the set-up: species or system Bos taurus.
Test [7] is described as follows: Inhibition of human alpha-fucosidase using p-nitrophenyl glycopyranoside as substrate preincubated for 5 mins followed by substrate addition and measured after 20 mins by visible absorption spectroscopic analysis.
Test [8] deals with T2, Beta-galactosidase (Bos taurus) (UniProt Q58D55).
T2 sequence (whole entry): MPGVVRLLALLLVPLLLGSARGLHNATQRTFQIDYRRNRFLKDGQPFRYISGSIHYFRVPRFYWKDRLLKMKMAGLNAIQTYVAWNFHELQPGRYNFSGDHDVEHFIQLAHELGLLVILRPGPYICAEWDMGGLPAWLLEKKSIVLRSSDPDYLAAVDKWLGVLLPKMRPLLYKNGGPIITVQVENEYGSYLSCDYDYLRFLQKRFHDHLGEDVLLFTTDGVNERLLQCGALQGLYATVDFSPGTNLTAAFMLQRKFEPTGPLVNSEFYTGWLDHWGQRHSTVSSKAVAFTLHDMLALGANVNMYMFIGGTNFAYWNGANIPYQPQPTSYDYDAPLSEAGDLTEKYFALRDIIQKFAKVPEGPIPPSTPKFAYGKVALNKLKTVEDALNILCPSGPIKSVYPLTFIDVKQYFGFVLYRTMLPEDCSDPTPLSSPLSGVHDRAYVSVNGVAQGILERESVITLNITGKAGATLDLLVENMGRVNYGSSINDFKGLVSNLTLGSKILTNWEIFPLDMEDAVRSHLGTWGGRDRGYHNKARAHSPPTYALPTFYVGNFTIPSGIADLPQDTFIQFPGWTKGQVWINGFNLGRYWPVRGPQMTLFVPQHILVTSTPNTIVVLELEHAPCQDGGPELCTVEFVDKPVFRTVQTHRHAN
Kind of test: Inhibition of bovine liver beta-galactosidase at 0.1 mM using p-nitrophenyl glycopyranoside as substrate preincubated for 5 mins followed by substrate addition and measured after 20 mins by visible absorption spectroscopic analysis.

In the next test the test system is Saccharomyces cerevisiae. The experiment in a line: Inhibition of Saccharomyces cerevisiae alpha-glucosidase at 0.1 mM using p-nitrophenyl glycopyranoside as substrate preincubated for 5 mins followed by substrate addition and measured after 20 mins by visible absorption spectroscopic analysis.
The next test has as its system Cornu aspersum. The experiment in a line: Inhibition of snail beta-mannosidase at 0.1 mM using p-nitrophenyl glycopyranoside as substrate preincubated for 5 mins followed by substrate addition and measured after 20 mins by visible absorption spectroscopic analysis.
The nature of test [9]: Uncompetitive inhibition of human alpha-fucosidase using p-nitrophenyl glycopyranoside as substrate preincubated for 5 mins followed by substrate addition and measured after 20 mins by Lineweaver-Burk plot analysis.
Another test deals with Aspergillus niger. Kind of test: Inhibition of Aspergillus niger amyloglucosidase at 0.1 mM using p-nitrophenyl glycopyranoside as substrate preincubated for 5 mins followed by substrate addition and measured after 20 mins by visible absorption spectroscopic analysis.
For the next test, the system named is Canavalia ensiformis. Kind of test: Inhibition of jack beans beta-N-acetylglucosaminidase at 0.1 mM using p-nitrophenyl glycopyranoside as substrate preincubated for 5 mins followed by substrate addition and measured after 20 mins by visible absorption spectroscopic analysis.
Test [10] has as its target T2, Beta-galactosidase (Bos taurus). The experiment in a line: Inhibition of bovine liver beta-galactosidase at 200 uM using p-nitrophenyl glycopyranoside as substrate preincubated for 5 mins followed by substrate addition and measured after 20 mins by visible absorption spectroscopic analysis relative to control.

Each structure is given as a SMILES string. Active and inactive are the calls of the source. The rule behind the calls is not given here.

Alpha-galactosidase (Coffea arabica), sequence (Q42656 16-378 limits assumed): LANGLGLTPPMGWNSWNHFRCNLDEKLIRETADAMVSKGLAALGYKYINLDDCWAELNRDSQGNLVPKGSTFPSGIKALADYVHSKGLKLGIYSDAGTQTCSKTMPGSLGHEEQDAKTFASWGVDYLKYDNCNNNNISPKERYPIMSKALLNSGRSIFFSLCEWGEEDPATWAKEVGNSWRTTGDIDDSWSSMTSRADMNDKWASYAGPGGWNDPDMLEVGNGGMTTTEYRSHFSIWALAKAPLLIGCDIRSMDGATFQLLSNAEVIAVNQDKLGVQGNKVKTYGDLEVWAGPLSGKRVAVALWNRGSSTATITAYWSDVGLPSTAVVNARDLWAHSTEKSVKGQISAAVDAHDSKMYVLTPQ

The inhibition is how much of the control response was suppressed. On to `C[C@@H]1N[C@@H](c2cn(CCOCCOCc3cn(CCCCCCCCCCCCn4cc(COCCOCCn5cc([C@@H]6N[C@@H](C)[C@@H](O)[C@H]6O)nn5)nn4)nn3)nn2)[C@H](O)[C@@H]1O`, for which, in the test filed under Bos taurus, the inhibition entry is “Active”.
The term Ki denotes the equilibrium dissociation constant of an inhibitor or competing ligand from its target. A higher Ki goes with a looser hold on the target. One may read the IC50 as the concentration that gives 50% inhibition. Lower therefore signals greater potency in that assay. Consider `C[C@@H]1N[C@@H](c2cn(CCOCCOCCOCCn3cc([C@@H]4N[C@@H](C)[C@@H](O)[C@H]4O)nn3)nn2)[C@H](O)[C@@H]1O`, for which the Ki was 4800 nM in [1], 132 nM in test [4], 43 nM in test [6] and 11.1 µM in test [9]. Moreover, the IC50 in test [2] came out at 120 nM; in [7] it was 26 µM. Moreover, the inhibition result (in test [3]; in the test on Prunus dulcis; in [5]; with Oryza sativa; in test [8]; with Saccharomyces cerevisiae) was “inactive” in each case. The inhibition entry with Cornu aspersum, in the test with Aspergillus niger and with Canavalia ensiformis was “inactive” in each case.
As to `C[C@@H]1N[C@@H](c2cn(CCCCCCn3cc([C@@H]4N[C@@H](C)[C@@H](O)[C@H]4O)nn3)nn2)[C@H](O)[C@@H]1O`, the Ki in test [1] was 2500 nM; in [4], 240 nM; in [6] it was 15 nM; in test [9], 7.1 µM. In addition, the results for the IC50 in [2] and in test [7] were 47 nM and 6.8 µM, respectively. Further, the inhibition entry (in [3]; in the test on Prunus dulcis; in test [5]; in the test on Oryza sativa; in [8]; with Saccharomyces cerevisiae) was “inactive” throughout. The inhibition result in the test with Cornu aspersum, in the test with Aspergillus niger and in the test with Canavalia ensiformis was “inactive” in each case.
On to `C#C[C@H]1[C@H](O)[C@H](O)[C@H](C)N1C(=O)OC(C)(C)C`, for which the figures for the Ki in [4] and in test [6] were 1 nM and 0.2 nM, respectively.
Consider `C[C@@H]1N[C@@H](c2cn(CCCCCCCCCCCCn3cc([C@@H]4N[C@@H](C)[C@@H](O)[C@H]4O)nn3)nn2)[C@H](O)[C@@H]1O`, for which the inhibition result in the test filed under Bos taurus is “Active”.
Turning to `C[C@@H]1N[C@@H](c2cn(-c3ccc(S(=O)(=O)c4ccc(N=[N+]=[N-])cc4)cc3)nn2)[C@H](O)[C@@H]1O`, the Ki in [1] was 73 nM; in test [4] it was 1 nM; in test [6] it was 0.2 nM; in [9], 0.58 µM. In addition, the IC50 was found to be 1.1 nM in test [2] and 0.54 µM in test [7]. Moreover, the inhibition entry (in test [3]; in the test with Prunus dulcis; in test [5]; in the test on Oryza sativa; in test [8]; in the test on Saccharomyces cerevisiae) was “inactive” each time. The inhibition entry with Cornu aspersum, in the test on Aspergillus niger and in the test on Canavalia ensiformis was “inactive” each time.
In test [10], `Cc1oc([C@H]2NC[C@@H](O)[C@H]2O)cc1C(=O)NCc1cn(CCOCCOCCOCCOCCOCCn2cc(CNC(=O)c3cc([C@H]4NC[C@@H](O)[C@H]4O)oc3C)nn2)nn1` displayed an inhibition of under 50%.
The same measure, in the same setting: with `Cc1oc([C@H]2NC[C@@H](O)[C@H]2O)cc1C(=O)NCc1cn(CCOCCOCCOCCn2cc(CNC(=O)c3cc([C@H]4NC[C@@H](O)[C@H]4O)oc3C)nn2)nn1` the figure was under 50%.
As for `C[C@@H]1N[C@@H](c2cn(-c3ccccc3)nn2)[C@H](O)[C@@H]1O`, the Ki in test [1] came out at 860 nM; in test [4], 66 nM; in test [6], 6.8 nM; in test [9], 5.5 µM. In addition, the IC50 was determined as 19 nM in test [2] and 4.2 µM in test [7]. For the same compound, the inhibition entry (in [3]; with Prunus dulcis; in test [5]; with Oryza sativa; in test [8]; in the test with Saccharomyces cerevisiae) was “inactive” throughout. For the same compound, the inhibition entry in the test on Cornu aspersum, in the test with Aspergillus niger and in the test with Canavalia ensiformis was “inactive” throughout.
Take `C[C@@H]1N[C@@H](c2cn(CCOCCOCc3cn(-c4cccc(S(=O)(=O)c5cccc(-n6cc(COCCOCCn7cc([C@@H]8N[C@@H](C)[C@@H](O)[C@H]8O)nn7)nn6)c5)c4)nn3)nn2)[C@H](O)[C@@H]1O`: the inhibition result in the test listed under Bos taurus is “Active”.
`C[C@@H]1N[C@@H](c2c[nH]nn2)[C@H](O)[C@@H]1O`: the Ki was found to be 18000 nM in test [1], 4200 nM in test [4], 300 nM in test [6] and 34 µM in test [9]. For the same compound, the IC50 in [2] was 1000 nM; in [7] it was 70 µM. Also, the inhibition entry (in [3]; in the test with Prunus dulcis; in test [5]; in the test on Oryza sativa; in test [8]; in the test on Saccharomyces cerevisiae) was “inactive” in each case. The inhibition entry with Cornu aspersum, with Aspergillus niger and in the test on Canavalia ensiformis was “inactive” each time.

The record behind these values is ChEMBL document CHEMBL4270512, “Harnessing pyrrolidine iminosugars into dimeric structures for the rapid discovery of divalent glycosidase inhibitors” (Eur J Med Chem, 2018).
